Measured values taken from US7687643B2, “Process for preparing 3,3-dimethylindolines” (Amgen Inc., priority 2001, dated 2010).

System: Human Umbilical Vein Endothelial cells (VEGF-stimulated)
Experiment: HUVEC proliferation assay, VEGF-stimulated
Type: cell-based
Settings: VEGF 50 ng/mL, 72 h, CyQuant, read-out: inhibited VEGF-stimulated HUVEC proliferation at a level
Summary of the method: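 Pooled-donor HUVECs (passage 2–3) seeded in DMEM+10% FBS for 22 h, then pre-treated 2–3 h with five-point, five-fold compound dilutions (0.25% DMSO final). Stimulated with 50 ng/mL VEGF (bFGF 20 ng/mL on separate plates) for 72 h at 37 °C. CyQuant fluorescence (485/530 nm) after freeze-thaw; IC50 from 4-parameter fit.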

SMILES	IC50
CC1(C)COc2cc(NC(=O)c3cccnc3NCc3ccncc3)ccc21 [Example 973, N-(3,3-Dimethyl-2,3-dihydro-benzofuran-6-yl)-2-[(pyridin-4-ylmethyl)-amino]-nicotinamide]	< 50 nM
CC1(C)CNc2cc(NC(=O)c3cccnc3NCc3ccnc4ccccc34)ccc21 [Example 1023, N-(3,3-Dimethyl-2,3-dihydro-1H-indol-6-yl)-2-((4-quinolinylmethyl)amino)-3-pyridinecarboxamide]	< 50 nM
CC(C)c1ccc(NC(=O)c2cccnc2NCc2ccc3ocnc3c2)cc1 [Example 1120, 2-((1,3-Benzoxazol-5-ylmethyl)amino)-N-(4-(1-methylethyl)phenyl)-3-pyridinecarboxamide]	< 50 nM
CC(C)(C)c1ccc(NC(=O)c2cccnc2NCc2ccnc(OCCN3CCOCC3)c2)cc1 [Example 905, N-(4-tert-Butyl-phenyl)-2-{[2-(2-morpholin-4-yl-ethoxy)-pyridin-4-ylmethyl]-amino}-nicotinamide]	< 50 nM
CCOC(=O)N1CC2(CC2)c2ccc(NC(=O)c3cccnc3NCc3ccnc(NC)n3)cc21 [Example 1108, Ethyl [1,2-dihydro-6-({2-[(2-methylamino-pyrimidin-4-ylmethyl)-amino]-pyridine-3-carbonyl}-amino)-3-spiro-1′-cyclopropyl-1H-indole]-1-carbamate]	< 50 nM
CNc1nccc(CNc2ncccc2C(=O)Nc2ccc3c(n2)NC(=O)CC3(C)C)n1 [Example 1135, N-(5,5-Dimethyl-7-oxo-5,6,7,8-tetrahydro-[1,8]naphthyridin-2-yl)-2-[(2-methylamino-pyrimidin-4-ylmethyl)-amino]-nicotinamide]	< 50 nM
CC1(C)CNCc2cc(NC(=O)c3cccnc3NCc3ccnc4[nH]ccc34)ccc21 [Example 1145, N-(4,4-Dimethyl-1,2,3,4-tetrahydro-isoquinolin-7-yl)-2-[(1H-pyrrolo[2,3-b]pyridin-4-ylmethyl)-amino]-nicotinamide]	< 50 nM
COc1cc(CNc2ncccc2C(=O)Nc2ccc3c(c2)NCCC3(C)C)ccn1 [Example 1113, N-(4,4-Dimethyl-1,2,3,4-tetrahydro-quinolin-7-yl)-2-[(2-methoxy-pyridin-4-ylmethyl)-amino]-nicotinamide]	< 50 nM
CS(=O)(=O)NCCOc1cc(NC(=O)c2cccnc2NCc2ccncc2)ccc1C(F)(F)C(F)(F)F [Example 1031, N-(3-((2-((Methylsulfonyl)amino)ethyl)oxy)-4-(pentafluoroethyl)phenyl)-2-((4-pyridinylmethyl)amino)-3-pyridinecarboxamide]	< 50 nM
CNc1nccc(CNc2ncccc2C(=O)Nc2ccc3c(c2)N(C(C)=O)CC3(C)C)n1 [Example 1045, N-(1-acetyl-3,3-dimethyl-2,3-dihydro-1H-indol-6-yl)-2-(((2-(methylamino)-4-pyrimidinyl)methyl)amino)-3-pyridinecarboxamide]	< 50 nM
CCOC(=O)N1CC2(CC2)c2ccc(NC(=O)c3cccnc3NCc3ccnc(NC)c3)cc21 [Example 1106, Ethyl [1,2-dihydro-6-({2-[(2-methylamino-pyridin-4-ylmethyl)-amino]-pyridine-3-carbonyl}-amino)-3-spiro-1′-cyclopropyl-1H-indole]-1-carbamate]	< 50 nM
CC1(C)CNCc2cc(NC(=O)c3cccnc3NCc3ccnc4ccccc34)ccc21 [Example 1192, N-(4,4-Dimethyl-1,2,3,4-tetrahydro-isoquinolin-7-yl)-2-[(quinolin-4-ylmethyl)-amino]-nicotinamide]	< 50 nM
CN1CCC[C@H]1COc1cc(NC(=O)c2cccnc2NCc2ccncn2)cc(C(F)(F)F)c1 [Example 1025, N-(3-((((2S)-1-Methyl-2-pyrrolidinyl)methyl)oxy)-5-(trifluoromethyl)phenyl)-2-((4-pyrimidinylmethyl)amino)-3-pyridinecarboxamide]	< 50 nM
CC1(C)CN(C[C@@H]2CCCN2)c2cc(NC(=O)c3cccnc3NCc3ccncc3)ccc21 [Example 1176, N-(3,3-Dimethyl-1-pyrrolidin-(2S)-ylmethyl-2,3-dihydro-1H-indol-6-yl)-2-[(pyridin-4-ylmethyl)-amino]-nicotinamide]	< 50 nM
